Results as given in article PMC9024977, “In Vitro and In Silico Studies of Human Tyrosyl-DNA Phosphodiesterase 1 (Tdp1) Inhibition by Stereoisomeric Forms of Lipophilic Nucleosides: The Role of Carbohydrate Stereochemistry in Ligand-Enzyme Interactions” (Molecules, 2022).

Legend:
Tdp1 [1] = biological target: T1, Tdp1 (Homo sapiens, UniProt Q9NUW8); assay: Real-time detection of Tdp1 activity (oligonucleotide biosensor, FAM/BHQ1); type: biochemical; design: key to Eut/Dis: The stereoisomer with the greater inhibitory activity is termed the eutomer (Eut); that with the lower activity, the distomer (Dis); settings: for IC50: 1.5 nM Tdp1, 50 nM biosensor, 26 °C, three independent experiments; for ER (eudismic ratio): IC50 (Eutomer)/IC50 (Distomer); for ER (eudismic ratio) / EI (eudismic index): per stereoisomer pair; for Eut/Dis: eutomer or distomer within the stereoisomer pair; for EI (eudismic index): −logER
Description: The measurement of Tdp1 inhibition was performed using a real-time oligonucleotide biosensor based on the capability of Tdp1 to remove fluorophore quenchers from the 3′-end of DNA [31]. The single-stranded Tdp1 substrate was a 16-mer oligonucleotide containing a 5′-FAM (6-carboxyfluorescein) fluorophore donor and a 3′-BHQ1 quencher (black hole quencher 1). When a quencher is removed by Tdp1, FAM fluorescence flares up and can be detected by a fluorimeter. In the presence of an inhibitor, fluorescence intensity decreases. The obtained Tdp1 activity versus inhibitor concentration curves were used to calculate IC50 values. We also studied other structurally related compounds, such as optically active benzoylated arabinofuranose and ribofuranose to ascertain the influence of a heterocyclic base on biological activity (Table 1).
Real-time detection of Tdp1 activity was reported in our previous work. This approach involves measuring the fluorescence intensity during the reaction of quencher removal from a fluorophore-quencher coupled to a DNA-oligonucleotide catalyzed by Tdp1 in the presence of inhibitor (the control samples contained 1% DMSO). Reaction mixtures ([…]) contained Tdp1 buffer (50mM Tris-HCl, pH 8.0, 50mM NaCl, 7mM β-mercaptoethanol), 50 nM biosensor, testable inhibitor, and purified Tdp1 (1.5 nM). The biosensor was a single-stranded oligonucleotide (5′-[FAM] AAC GTC AGGGTC TTC C [BHQ]-3′) containing a fluorophore at the 5′-end (5,6-FAM) and black hole quencher 1 (BHQ) at the 3′-end that was synthesized in the Laboratory of nucleic acid chemistry at the Institute of Chemical Biology and Fundamental Medicine, Novosibirsk, Russia. The reactions were incubated at a constant temperature of 26 °C in a POLARstar OPTIMA fluorimeter (BMG LABTECH, GmbH, Soest, Germany) set to measure fluorescence every 55 s (Ex485/Em520 nm) during the linear phase (from 0 to 8 min). The values for half maximal inhibitory concentration (IC50) were determined using a six-point concentration response curve in three independent experiments and calculated using MARS Data Analysis 2.0 (BMG LABTECH, Soest, Germany).

recombinant human Tdp1 = assay: Steady-state kinetic analysis of Tdp1 enzymatic reaction; type: biochemical; settings: from dependence of Vmax and KM on inhibitor concentration
Description: To confirm the interaction model obtained by molecular docking, the type of inhibition by compounds 3D, 3L, 7R, and 7S was determined by a steady-state kinetic assay. During the experiment, dependence curves of the enzymatic reaction rate (V) on substrate concentration (S) in the presence of different concentrations of the inhibitors were obtained (Figures S36–S39 in Supplementary Materials). The apparent Michaelis constant (KM) and the maximum reaction rate (Vmax) were calculated according to the Michaelis–Menten equation. Conclusions about the type of inhibition were made from the characteristics of the dependence of Vmax and KM on the concentration of the inhibitor.
To determine the apparent maximum rate of enzymatic reaction (Vmax), Michaelis constant (KM), and possible inhibition mechanism, steady-state kinetic experiments were carried out at five fixed concentrations for the substrate with various inhibitor concentrations. The standard reaction mixtures (200 μL) contained 50 nM, 100 nM, 200 nM, 500 nM, or 1000 nM substrate, testable inhibitor, 1.5 nM recombinant human Tdp1, and reaction buffer components (50 mM Tris-HCl, pH 8.0, 50 mM NaCl, 7 mM β-mercaptoethanol). After the addition of the enzyme, the reaction mixtures were incubated at a constant temperature of 26 °C and measured in a POLARstar OPTIMA fluorimeter (BMG LABTECH, GmbH) set to measure fluorescence every 55 s (Ex485/Em520 nm) during the linear phase (0 to 8 min). The initial data (kinetic curves) were obtained in three independent experiments and statistically processed with OriginPro 8.6.0 software.

Tdp1 [2] = biological target: T1, Tdp1; assay: Fluorescence anisotropy assay; type: binding; settings: FAM-labeled DNA with Tdp1, increasing inhibitor concentration
Description: To clarify the mechanism of action of this compound, the change in the fluorescence anisotropy during the Tdp1 catalytic reaction was studied. This method is based on the ability of fluorescent molecules to be excited by plane-polarized light when their dipole moment is parallel to the plane of polarization. If such a molecule is unable to rotate in space, then the emitted light will be polarized following excitation. Conversely, if the molecule can rotate, then the emitted light is “depolarized”. The minimum anisotropy value corresponds to FAM-labeled DNA (Figure S40, gray graph). When Tdp1 was added, the anisotropy increased due to the binding of the DNA by the enzyme, which prevents its free rotation (Figure S40, red graph).
This means that the inhibitor can bind to the active site of Tdp1 instead of the DNA substrate, thereby reducing the activity of the enzyme by competitive inhibition. This is consistent with the data obtained in the kinetic studies. […] Thus, a competitive component is present when Tdp1 is inhibited by compound 7R; however, this process is more complicated and requires further study with other methods.

T1 sequence (Q9NUW8 whole entry): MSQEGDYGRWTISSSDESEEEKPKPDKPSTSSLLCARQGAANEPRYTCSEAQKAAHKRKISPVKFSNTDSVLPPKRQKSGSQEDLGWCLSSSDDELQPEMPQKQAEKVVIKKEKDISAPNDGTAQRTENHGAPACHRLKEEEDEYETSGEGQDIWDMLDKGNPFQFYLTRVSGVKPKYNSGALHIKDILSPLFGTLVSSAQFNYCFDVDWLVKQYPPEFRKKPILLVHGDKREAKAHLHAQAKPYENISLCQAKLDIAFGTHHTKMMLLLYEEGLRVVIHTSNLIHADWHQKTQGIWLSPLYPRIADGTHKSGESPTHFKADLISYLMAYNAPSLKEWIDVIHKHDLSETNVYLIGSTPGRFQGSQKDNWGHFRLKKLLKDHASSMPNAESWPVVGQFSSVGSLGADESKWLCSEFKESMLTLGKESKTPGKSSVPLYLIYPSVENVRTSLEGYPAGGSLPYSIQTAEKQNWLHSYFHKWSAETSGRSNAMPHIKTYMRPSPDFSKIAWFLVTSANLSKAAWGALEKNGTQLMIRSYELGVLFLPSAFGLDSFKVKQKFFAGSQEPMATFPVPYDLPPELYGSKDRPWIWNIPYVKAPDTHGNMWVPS

For `CO[C@H]1O[C@H](COC(=O)c2ccccc2)[C@@H](OC(=O)c2ccccc2)[C@@H]1OC(=O)c1ccccc1` [Compound 1D, 1-O-methyl-2,3,5-tri-O-benzoyl-α-D-arabinofuranose], the IC50 (Tdp1 [1]) was 2.3 ± 0.6 µM, the “ER (eudismic ratio)” value (Tdp1 [1]) was 0.343 and the Eut/Dis (Tdp1 [1]) was “Eut”. For the same compound, the “EI (eudismic index)” value (Tdp1 [1]) was 0.465.

With `CO[C@@H]1O[C@@H](COC(=O)c2ccccc2)[C@H](OC(=O)c2ccccc2)[C@H]1OC(=O)c1ccccc1` [Compound 1L, 1-O-methyl-2,3,5-tri-O-benzoyl-α-L-arabinofuranose] the IC50 (Tdp1 [1]) was 6.7 ± 1.9 µM, the “ER (eudismic ratio)” value (Tdp1 [1]) was 0.343 and the Eut/Dis (Tdp1 [1]) was “Dis”. For the same compound, the “EI (eudismic index)” value (Tdp1 [1]) was 0.465.

For `CC(=O)O[C@@H]1O[C@H](COC(=O)c2ccccc2)[C@@H](OC(=O)c2ccccc2)[C@H]1OC(=O)c1ccccc1` [Compound 2D, 1-O-Acetyl-2,3,5-tri-O-benzoyl-β-D-ribofuranose], the “ER (eudismic ratio)” value (Tdp1 [1]) was 0.808, the Eut/Dis (Tdp1 [1]) was “Eut” and the “EI (eudismic index)” value (Tdp1 [1]) was 0.09.

For `CC(=O)O[C@H]1O[C@@H](COC(=O)c2ccccc2)[C@H](OC(=O)c2ccccc2)[C@@H]1OC(=O)c1ccccc1` [Compound 2L], the IC50 (Tdp1 [1]) was 5.2 ± 0.2 µM, the “ER (eudismic ratio)” value (Tdp1 [1]) was 0.808 and the Eut/Dis (Tdp1 [1]) was “Dis”. For the same compound, the “EI (eudismic index)” value (Tdp1 [1]) was 0.09.

In the case of `O=C(OC[C@H]1O[C@@H](n2ccc(=O)[nH]c2=O)[C@H](OC(=O)c2ccccc2)[C@@H]1OC(=O)c1ccccc1)c1ccccc1` [Compound 3D, 2′,3′,5′-tri-O-benzoyl-D-uridine], the IC50 (Tdp1 [1]) is reported as 3.8 ± 0.4 µM, the “ER (eudismic ratio)” value (Tdp1 [1]) is reported as 0.745 and the Eut/Dis (Tdp1 [1]) is reported as “Eut”. For the same compound, the “EI (eudismic index)” value (Tdp1 [1]) was 0.128 and the type of inhibition (recombinant human Tdp1) was “uncompetitive”.

`O=C(OC[C@@H]1O[C@H](n2ccc(=O)[nH]c2=O)[C@@H](OC(=O)c2ccccc2)[C@H]1OC(=O)c1ccccc1)c1ccccc1` [Compound 3L, 2′,3′,5′-tri-O-benzoyl-L-uridine] was tested, and the IC50 (Tdp1 [1]) was 5.1 ± 0.1 µM, the “ER (eudismic ratio)” value (Tdp1 [1]) was 0.745 and the Eut/Dis (Tdp1 [1]) was “Dis”. For the same compound, the “EI (eudismic index)” value (Tdp1 [1]) was 0.128 and the type of inhibition (recombinant human Tdp1) was “uncompetitive”.

For `Cc1cn([C@@H]2O[C@H](COC(=O)c3ccccc3)[C@@H](OC(=O)c3ccccc3)[C@H]2OC(=O)c2ccccc2)c(=O)[nH]c1=O` [Compound 4D, 1-(2,3,5-Tri-O-benzoyl-β-D-ribofuranosyl)thymine], the “ER (eudismic ratio)” value (Tdp1 [1]) was 0.108, the Eut/Dis (Tdp1 [1]) was “Eut” and the “EI (eudismic index)” value (Tdp1 [1]) was 0.967.

In the case of `Cc1cn([C@H]2O[C@@H](COC(=O)c3ccccc3)[C@H](OC(=O)c3ccccc3)[C@@H]2OC(=O)c2ccccc2)c(=O)[nH]c1=O` [Compound 4L, 2′,3′,5′-tri-O-benzoyl-L-ribothymidine], the IC50 (Tdp1 [1]) is reported as 25 ± 1 µM, the “ER (eudismic ratio)” value (Tdp1 [1]) is reported as 0.108 and the Eut/Dis (Tdp1 [1]) is reported as “Dis”. The “EI (eudismic index)” value (Tdp1 [1]) was 0.967.

For `C[C@@H](OC(=O)c1ccccc1)[C@H]1O[C@@H](n2c(=O)cc[nH]c2=O)[C@H](OC(=O)c2ccccc2)[C@@H]1OC(=O)c1ccccc1` [Compound 5R, 3-[5(R)-C-methyl-2,3,5-O-tribenzoyl-β-D-ribofuranosyl]uracil], the IC50 (Tdp1 [1]) was 3.1 ± 0.2 µM, the “ER (eudismic ratio)” value (Tdp1 [1]) was 0.871 and the Eut/Dis (Tdp1 [1]) was “Dis”. The “EI (eudismic index)” value (Tdp1 [1]) was 0.06.

In the case of `C[C@H](OC(=O)c1ccccc1)[C@H]1O[C@@H](n2c(=O)cc[nH]c2=O)[C@H](OC(=O)c2ccccc2)[C@@H]1OC(=O)c1ccccc1` [Compound 5S, 3-[5(S)-C-methyl-2,3,5-tri-O-benzoyl-β-D-ribofuranosyl]uracil], the IC50 (Tdp1 [1]) is reported as 2.7 ± 0.2 µM, the “ER (eudismic ratio)” value (Tdp1 [1]) is reported as 0.871 and the Eut/Dis (Tdp1 [1]) is reported as “Eut”. For the same compound, the “EI (eudismic index)” value (Tdp1 [1]) was 0.06.

For `C[C@@H](OC(=O)c1ccccc1)[C@H]1O[C@@H](n2ccc(N)nc2=O)[C@H](OC(=O)c2ccccc2)[C@@H]1OC(=O)c1ccccc1` [Compound 6R, 1-[5(R)-C-methyl-2,3,5-tri-O-benzoyl-β-D-ribofuranosyl]cytosine], the IC50 (Tdp1 [1]) was 5.8 ± 0.5 µM, the “ER (eudismic ratio)” value (Tdp1 [1]) was 0.896 and the Eut/Dis (Tdp1 [1]) was “Dis”. For the same compound, the “EI (eudismic index)” value (Tdp1 [1]) was 0.048.

In the case of `C[C@H](OC(=O)c1ccccc1)[C@H]1O[C@@H](n2ccc(N)nc2=O)[C@H](OC(=O)c2ccccc2)[C@@H]1OC(=O)c1ccccc1` [Compound 6S, 1-[5(S)-C-methyl-2,3,5-tri-O-benzoyl-β-D-ribofuranosyl]cytosine], the IC50 (Tdp1 [1]) is reported as 5.2 ± 0.8 µM, the “ER (eudismic ratio)” value (Tdp1 [1]) is reported as 0.896 and the Eut/Dis (Tdp1 [1]) is reported as “Eut”. For the same compound, the “EI (eudismic index)” value (Tdp1 [1]) was 0.048.

With `C[C@@H](OC(=O)c1ccccc1)[C@H]1O[C@@H](n2cnc3c(NC(=O)c4ccccc4)ncnc32)[C@H](OC(=O)c2ccccc2)[C@@H]1OC(=O)c1ccccc1` [Compound 7R, 5′(R)-C-methyl-2′,3′,5′-tri-O-benzoyl-N^6-benzoyladenosine] the IC50 (Tdp1 [1]) was 4.4 ± 0.8 µM, the “ER (eudismic ratio)” value (Tdp1 [1]) was 0.956 and the Eut/Dis (Tdp1 [1]) was “Eut”. For the same compound, the “EI (eudismic index)” value (Tdp1 [1]) was 0.0193 and the type of inhibition (recombinant human Tdp1) was “uncompetitive at low inhibitor concentrations and mixed at high”.

In the case of `C[C@H](OC(=O)c1ccccc1)[C@H]1O[C@@H](n2cnc3c(NC(=O)c4ccccc4)ncnc32)[C@H](OC(=O)c2ccccc2)[C@@H]1OC(=O)c1ccccc1` [Compound 7S, 5′(S)-C-methyl-2′,3′,5′-tri-O-benzoyl-N^6-benzoyladenosine], the IC50 (Tdp1 [1]) is reported as 4.6 ± 0.9 µM, the “ER (eudismic ratio)” value (Tdp1 [1]) is reported as 0.956 and the Eut/Dis (Tdp1 [1]) is reported as “Dis”. The “EI (eudismic index)” value (Tdp1 [1]) was 0.0193, the type of inhibition (recombinant human Tdp1) was “competitive” and the “change in fluorescence anisotropy” value (Tdp1 [2]) was “decreased with an increasing concentration of the inhibitor”.

Compound `O=c1ccn([C@@H]2O[C@H](CO)[C@@H](O)[C@H]2O)c(=O)[nH]1` [Compound 8D] has an IC50 (Tdp1 [1]) of over 50 µM.

In the case of `O=c1ccn([C@H]2O[C@@H](CO)[C@H](O)[C@@H]2O)c(=O)[nH]1` [Compound 8L], the IC50 (Tdp1 [1]) is reported as over 50 µM.
